Measured values reported in patent US7420090B2 (priority 2002, dated 2008).

Test system: Pyrenophora teres
Type: in vivo
Settings: 200 ppm

CCC(Oc1cc(Cl)cc(Cl)c1)C(=O)NC(C)(C)C#CCCCOC (stereo not shown) [4(57), 2-(3,5-dichlorophenoxy)-N-(1-methoxy-6-methylhept-4-yn-6-yl) butyramide]
control of fungal infection (preventive fungicidal activity): more than 60%
